Assay results taken from publication PMC9943626, “CS27109, A Selective Thyroid Hormone Receptor-β Agonist Alleviates Metabolic-Associated Fatty Liver Disease in Murine Models” (International Journal of Endocrinology, 2023).
Like-named read-outs stand apart in the source and are kept apart here.

How the values were obtained:
[1] = Tissue distribution in SD rat; format: in vivo; settings: for concentration at 2 h / concentration at 8 h: male, 10 mg/kg oral gavage once
Description: [Worded in the source for another organism; this organism is reported under the same test.] Half of mice for each group (n = 3) were sacrificed 2H and 8H after drug administration, respectively. Blood, heart, and liver were collected at each time point. Blood was processed and detected as mentioned previously. The heart and liver were homogenized and added extractant. The protein of tissue samples was precipitated by vortex oscillation, and the supernatant was collected and determined by LC-MS/MS procedures.

[2] = test system: HFD-CHOL hamster model; experiment: HFD-CHOL hamster model, serum biochemical test; format: in vivo, golden hamster; settings: 10 mg/kg (CS27109-M, MGL-3196) oral once a day 4 weeks, mean ± SD
Description: Hamster study: 58 golden hamsters ♂ aged 6–8 weeks were purchased from Beijing Vital River Laboratory Animal Technology Co., Ltd. 10 animals were kept with a diet of food control as normal control, and the other 48 animals were fed 40% fat and 1.25% cholesterol (HFD-CHOL, D12108C, Research diet) as a model group. […] Animals in the normal and model group were given solvent by oral gavage. All drugs, including solvent, were administered consecutively for 4 weeks and once a day. After sacrifice, blood was collected and serum was isolated for the AST, ALT, TG, TC, LDL-c, and HDL-c test.

[3] = test system: HFD SD rat model; experiment: HFD SD rat model, biochemical, organ weight ratio, liver lipid and liver pathology; format: in vivo
Description: SD rat study: 58 SD rats ♂ aged 5–6 weeks were purchased from Beijing Huafukang Biotechnology Co., Ltd. 9 animals were kept with a food control diet as normal control, and the other 49 animals were fed 40% fat, 1.25% cholesterol and 0.5% sodium cholate (HFD, D12109C, SYSE BIO, Changzhou, China) as a model group. […] Animals in the normal and model groups were given solvent by oral gavage. All drugs, including solvent, were administered consecutively for 4 weeks and once a day. After sacrifice, blood was collected and serum was isolated for the AST, ALT, TG, TC, LDL-c, and HDL-c test, and livers and hearts were weighed to calculate the liver weight ratio and the heart weight ratio, respectively. The right lobe of the liver of each rat was harvested for the TG and TC test (A110-1-1 and A111-1-1, Nanjing Jiancheng Institute of Bioengineering, Nanjing, China) according to the manufacturer's instructions. The left lobe of the liver was collected for hematoxylin-eosin staining (H and E staining) to quantify liver steatosis, inflammation, and ballooning.
(§1) The liver samples were fixed in 10% formalin and embedded in paraffin using standard methods. The 4 μm paraffin sections were then assessed for liver histology by H and E staining and liver fibrosis by sirius red staining. The stained sections were panoramic scanned with a NanoZoomer Digital Pathology scanner (S210, Hamamatsu, Japan), and then observed with different visual fields at different magnifications, and scored for different liver lobes in the sections. The total NAS score represents the sum of the scores for steatosis (0–3), lobular inflammation (0–3), and ballooning (0–2), and ranges from 0–8 [30]. VIS7.0 software was used to analyze the area of liver fibrosis in the panoramic scanning SR staining sections, and the percentage of liver fibrosis area in the whole section area was calculated.

[4] = test system: WD + CCL4 mouse model; experiment: WD + CCL4 mouse model, biochemical, liver weight ratio and liver pathology; format: in vivo, C57/B6 mouse
Description: C57/B6 mouse study: 61 C57/B6 mice ♂ aged 6–7 weeks were purchased from Beijing Vital River Laboratory Animal Technology Co., Ltd. Six animals were kept with a chow diet as normal control, and the other 55 animals were fed 60% fat diet (Western diet, D12492, Research diet) as the model group. […] Animals in the normal and model groups were given solvent by oral gavage. All drugs, including solvent, were administered consecutively for 4 weeks and once a day. After sacrifice, blood was collected and serum was isolated for the AST, ALT, TG, TC, LDL-c, HDL-c, and CK tests, and the livers were weighed to calculate the liver weight ratio. The left lobe of the liver of each mouse was collected for hematoxylin-eosin staining (H and E staining) and sirius red staining.
as §1

[5] = Observation of diarrhea in treated animals; format: in vivo, rodents; settings: animal studies
[6] = heart, read-out: Heart concentration
[7] = liver, read-out: Liver concentration
[8] = serum, read-out: Serum concentration
[9] = WD + CCL4 mouse, 4 weeks, MGL3196 10 mg/kg, CS27109 high-dose (30 mg/kg), vs model

In the case of `CC(C)c1cc(Oc2c(Cl)cc(-n3nc(C#N)c(=O)[nH]c3=O)cc2Cl)n[nH]c1=O` [MGL3196, 2-[3,5-dichloro-4-(5-isopropyl-6-oxo-1,6-dihydropyridazin-3-yloxy)phenyl]-3,5-dio xo-2,3,4,5-tetrahydro[1,2,4]triazine-6-carbonitrile, reference compound], the “average of concentration liver/heart” value ([1]; 10 mg/kg oral, average of 2H and 8H) is reported as 22.325, the concentration at 2 h [1, 6] is reported as 156 ng/g and the concentration at 8 h [1, 6] is reported as 128 ng/g. The concentration at 2 h [1, 7] was 3850 ng/g, the concentration at 8 h [1, 7] was 2550 ng/g and the concentration at 2 h [1, 8] was 1400 ng/mL. It also gave a concentration at 8 h [1, 8] of 506 ng/mL, an HDL-c ([2]; model 3.6 ± 1.1, normal 1.6 ± 0.45) of 2.9 ± 0.36 mmol/L and an LDL-c ([2]; model 17 ± 6.1, normal 1.3 ± 0.54) of 8.6 ± 3.3 mmol/L. For the same compound, the TG ([2]; model 26 ± 24, normal 2.1 ± 1.1) was 5.9 ± 5.6 mmol/L, the TC ([2]; model 37 ± 13, normal 3.1 ± 0.72) was 18 ± 6.3 mmol/L and the ALT ([2]; model 278 ± 174, normal 94 ± 58) was 206 ± 47 U/L. For the same compound, the AST ([2]; model 638 ± 323, normal 98 ± 45) was 752 ± 261 U/L, the “Liver TC” value ([3]; HFD SD rat liver, 15 mg/kg (CS27109-M, MGL-3196) oral once a day 4 weeks, mean ± SD, model 13 ± 2.2, normal 6.0 ± 0.76) was 12 ± 1.7 µmol/g and the “Liver TG” value ([3]; HFD SD rat liver, 15 mg/kg (CS27109-M, MGL-3196) oral once a day 4 weeks, mean ± SD, model 102 ± 36, normal 0.75 ± 12) was 113 ± 38 µmol/g. For the same compound, the TG ([3]; HFD SD rat serum, 15 mg/kg (CS27109-M, MGL-3196) oral once a day 4 weeks, mean ± SD, model 0.82 ± 0.73, normal 0.53 ± 0.34) was 0.11 ± 0.03^∗∗∗ mmol/L, the HDL-c ([3]; HFD SD rat serum, 15 mg/kg (CS27109-M, MGL-3196) oral once a day 4 weeks, mean ± SD, model 1.2 ± 0.44, normal 1.1 ± 0.13) was 0.94 ± 0.26 mmol/L and the LDL-c ([3]; HFD SD rat serum, 15 mg/kg (CS27109-M, MGL-3196) oral once a day 4 weeks, mean ± SD, model 9.7 ± 6.1, normal 0.28 ± 0.06) was 1.1 ± 0.65 mmol/L. It also gave a TC ([3]; HFD SD rat serum, 15 mg/kg (CS27109-M, MGL-3196) oral once a day 4 weeks, mean ± SD, model 20 ± 13, normal 1.5 ± 0.20) of 3.3 ± 1.3 mmol/L, an ALT ([3]; HFD SD rat serum, 15 mg/kg (CS27109-M, MGL-3196) oral once a day 4 weeks, mean ± SD, model 166 ± 95, normal 32 ± 6.8) of 74 ± 24 U/L and an AST ([3]; HFD SD rat serum, 15 mg/kg (CS27109-M, MGL-3196) oral once a day 4 weeks, mean ± SD, model 365 ± 212, normal 103 ± 21) of 185 ± 66 U/L. The NAS score ([3]; HFD SD rat, 4 weeks, 15 mg/kg, vs model) was “tendency to reduce the NAS score, but without significance”, the “liver steatosis score (H and E)” value ([3]; HFD SD rat, 4 weeks, CS27109 5-45 mg/kg dose-dependent, MGL3196 15 mg/kg, vs model) was “lessened steatosis” and the LDL-c ([4]; WD + CCL4 mouse serum, 10 mg/kg (CS27109-M, MGL-3196) oral once a day 4 weeks, mean ± SD, model 1.1 ± 0.35, normal 0.43 ± 0.04) was 0.33 ± 0.05 mmol/L. The TG ([4]; WD + CCL4 mouse serum, 10 mg/kg (CS27109-M, MGL-3196) oral once a day 4 weeks, mean ± SD, model 1.2 ± 0.34, normal 0.91 ± 0.14) was 1.0 ± 0.23 mmol/L, the HDL-c ([4]; WD + CCL4 mouse serum, 10 mg/kg (CS27109-M, MGL-3196) oral once a day 4 weeks, mean ± SD, model 1.5 ± 0.25, normal 2.0 ± 0.08) was 1.2 ± 0.13 mmol/L and the TC ([4]; WD + CCL4 mouse serum, 10 mg/kg (CS27109-M, MGL-3196) oral once a day 4 weeks, mean ± SD, model 4.1 ± 0.97, normal 3.0 ± 0.10) was 1.9 ± 0.17 mmol/L. For the same compound, the CK activity ([4]; WD + CCL4 mouse serum, 10 mg/kg (CS27109-M, MGL-3196) oral once a day 4 weeks, mean ± SD, model 345 ± 268, normal 334 ± 193) was 197 ± 129 U/L, the AST ([4]; WD + CCL4 mouse serum, 10 mg/kg (CS27109-M, MGL-3196) oral once a day 4 weeks, mean ± SD, model 10245 ± 4955, normal 116 ± 71) was 2178 ± 769 U/L and the ALT ([4]; WD + CCL4 mouse serum, 10 mg/kg (CS27109-M, MGL-3196) oral once a day 4 weeks, mean ± SD, model 14003 ± 4205, normal 54 ± 15) was 4658 ± 1639 U/L. For the same compound, the “liver inflammation score (H and E)” value [4, 9] was “notable reduction”, the “liver steatosis score (H and E)” value [4, 9] was “notable reduction” and the “area of liver fibrosis (sirius red)” value ([4]; WD + CCL4 mouse, 4 weeks, three doses of CS27109 (3, 10, 30 mg/kg), MGL3196 10 mg/kg, vs model) was “prominently reduced the area of the fibrosis”. For the same compound, the “diarrhea in treated animals” value [5] was “exhibit diarrhea”.
